Results on 27 compounds are retold here after publication PMC6868012, “Discovery of novel potential selective HDAC8 inhibitors by combine ligand-based, structure-based virtual screening and in-vitro biological evaluation” (Scientific Reports, 2019).

Bounds are passed on as bounds.

A word on the IC50: it is the concentration needed to halve the response being measured. Usually pIC50 stands for the IC50 on a negative log10 scale, so that one unit is a factor of ten.

One experiment addresses T1, HDAC8 (Homo sapiens, UniProt Q9BY41).
T1 sequence (Q9BY41 1-377): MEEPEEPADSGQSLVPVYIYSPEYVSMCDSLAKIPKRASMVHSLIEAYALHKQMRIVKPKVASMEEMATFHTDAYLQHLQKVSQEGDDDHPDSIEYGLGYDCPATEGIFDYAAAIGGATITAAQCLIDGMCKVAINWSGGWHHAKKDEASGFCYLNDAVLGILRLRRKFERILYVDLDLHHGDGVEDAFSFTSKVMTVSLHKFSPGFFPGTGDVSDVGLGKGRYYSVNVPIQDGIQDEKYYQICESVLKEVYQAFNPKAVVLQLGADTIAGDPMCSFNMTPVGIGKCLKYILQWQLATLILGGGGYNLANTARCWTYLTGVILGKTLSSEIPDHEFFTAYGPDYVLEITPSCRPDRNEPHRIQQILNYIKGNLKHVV
Test: not given
Conditions: Table S1, external validation set; cited from earlier work.
Consider `O=C(/C=C/c1ccc(CN(CCN2CCCCC2)C(=O)NC(=O)c2ccccc2)cc1)NO` [compound 14], for which the “IC50” value is 350 nM and the pIC50 is reported as 6.456.

For `O=C(/C=C/c1ccc2c(c1)nc(-c1ccccn1)n2C[C@H](O)CO)NO` [compound 17], the “IC50” value is 1400 nM and the pIC50 is 5.854.

`O=C(Nc1cccc(-c2cc(C(=O)NO)n[nH]2)c1)c1ccccc1` [compound 18]: the “IC50” value was 150 nM and the pIC50 is given as 6.824.

Regarding `CN(C)Cc1c(C(=O)NCCOc2ccc(C(=O)NO)cc2)oc2ccccc12` [compound 12], the “IC50” value is 19700 nM and the pIC50 is reported as 4.706.

On to `CC(/C=C/C(=O)NO)=C\C(C)Cc1ccc(N(C)C)cc1` (stereo not shown) [compound 20], for which the “IC50” value was 220 nM and the pIC50 is given as 6.658.

Consider `CC(=O)SCC(=O)CCCCCCC(=O)Nc1ccccc1` [compound 11], for which the “IC50” value was 700 nM and the pIC50 is 6.155.

`CN(C)CC(C)(C)Cn1c(CCc2ccccc2)nc2cc(/C=C/C(=O)NO)ccc21` [compound 19]: the “IC50” value is 120 nM and the pIC50 is reported as 6.921.

Regarding `O=C(/C=C/c1ccc2c(c1)nc(COCc1ccccc1)n2CCc1cccnc1)NO` [compound 15], the “IC50” value was 180 nM and the pIC50 was 6.745.

Regarding `O=C(Cc1cccc(NC(=O)NC(=O)c2ccccc2)c1)NO` [compound 10], the “IC50” value is 66000 nM and the negative logarithm of the IC50 (pIC50) is 4.18.

Consider `O=C(NO)c1ccc(CN2CCN(C(=O)NC(=O)c3ccccc3)CC2)cc1` [compound 22], for which the “IC50” value was 29 nM and the pIC50 is given as 7.538.

With `O=C(/C=C/c1ccc2c(c1)ncn2Cc1ccccc1)NO` [compound 21], the “IC50” value was 52 nM and the pIC50 was 7.284.

As for `O=C(Cc1ccccc1)Nc1nc(-c2cc(C(=O)NO)no2)cs1` [compound 16], the “IC50” value was 100 nM and the pIC50 is recorded as 7.

For the compound `O=C(/C=C/c1ccc(CN(CCc2cc3ccccc3[nH]2)C(=O)NC(=O)c2ccccc2)cc1)NO` [compound 13], the “IC50” value is 15700 nM and the pIC50 was 4.804.

The same experiment, now with this note: Table S2, training and test set molecules, converted from literature IC50; cited from earlier work.
As to `Cc1ccc(Cc2cn(C)c3cc(C(=O)NO)ccc23)cc1` [compound 2], the “Activity (experimental pIC50)” value is listed as 7.620.

Regarding `O=C(/C=C/c1ccc(CN(CCN2CCCCC2)C(=O)NC(=O)c2ccccc2)cc1)NO` [compound 14], the “Activity (experimental pIC50)” value was 6.638.

As for `O=C(/C=C/c1ccc2c(c1)nc(-c1ccccn1)n2C[C@H](O)CO)NO` [compound 17], the “Activity (experimental pIC50)” value is recorded as 6.463.

`O=C(Nc1cccc(-c2cc(C(=O)NO)n[nH]2)c1)c1ccccc1` [compound 18]: the “Activity (experimental pIC50)” value is reported as 6.456.

`O=C(CCCCCNC(=O)NC(=O)c1ccccc1)NO` [compound 25]: the “Activity (experimental pIC50)” value is 5.971.

`O=C(Cc1ccc(-c2csc(NC(=O)c3ccn(CC4CCNCC4)c3-c3ccccc3)c2)s1)NO` [compound 9]: the “Activity (experimental pIC50)” value was 6.854.

Consider `CC(/C=C/C(=O)NO)=C\C(C)Cc1ccc(N(C)C)cc1` (stereo not shown) [compound 20], for which the “Activity (experimental pIC50)” value is 6.398.

As to `O=C(NO)c1ccc(NC(=S)NN=C(c2ccccc2)c2ccccc2)cc1` [compound 30], the “Activity (experimental pIC50)” value is on record as 4.633.

With `Cc1ccc(S(=O)(=O)NC(=O)Nc2cccc(/C=C/C(=O)NO)c2)cc1` [compound 5], the “Activity (experimental pIC50)” value is given as 7.398.

On to `C[C@H](N)C(=O)NCc1nnc(-c2ccccc2)o1` [compound 31], for which the “Activity (experimental pIC50)” value is 7.009.

In the case of `O=C(Cc1cccc(NC(=O)NC(=O)c2ccccc2)c1)NO` [compound 10], the “Activity (experimental pIC50)” value is 6.824.

`O=C(Cc1ccc(-c2csc(NC(=O)c3cnc([C@H]4CCCNC4)s3)n2)s1)NO` [compound 4]: the “Activity (experimental pIC50)” value was 7.398.

`Cc1ccc(S(=O)(=O)NC(=O)NCc2ccc(C(=O)NO)cc2)cc1` [compound 6]: the “Activity (experimental pIC50)” value is listed as 7.310.

Consider `O=C(NO)c1ccc(CN2CCN(C(=O)NC(=O)c3ccccc3)CC2)cc1` [compound 22], for which the “Activity (experimental pIC50)” value is 6.337.

`O=C(NO)c1ccc(-c2cccc(CNCCc3ccccn3)c2)s1` [compound 7]: the “Activity (experimental pIC50)” value is given as 7.301.

For `O=C(Cc1ccccc1)Nc1nc(-c2cc(C(=O)NO)no2)cs1` [compound 16], the “Activity (experimental pIC50)” value was 6.469.

`O=C(COc1ccccc1)Cc1nc(-c2ccc(C(=O)NO)s2)cs1` [compound 3]: the “Activity (experimental pIC50)” value is given as 7.420.

Consider `O=C(/C=C/c1ccc(CN(CCc2cc3ccccc3[nH]2)C(=O)NC(=O)c2ccccc2)cc1)NO` [compound 13], for which the “Activity (experimental pIC50)” value is 6.678.

A further experiment addresses T2, HDAC6 (Homo sapiens, UniProt Q9UBN7).
T2 sequence (Q9UBN7 1-1215): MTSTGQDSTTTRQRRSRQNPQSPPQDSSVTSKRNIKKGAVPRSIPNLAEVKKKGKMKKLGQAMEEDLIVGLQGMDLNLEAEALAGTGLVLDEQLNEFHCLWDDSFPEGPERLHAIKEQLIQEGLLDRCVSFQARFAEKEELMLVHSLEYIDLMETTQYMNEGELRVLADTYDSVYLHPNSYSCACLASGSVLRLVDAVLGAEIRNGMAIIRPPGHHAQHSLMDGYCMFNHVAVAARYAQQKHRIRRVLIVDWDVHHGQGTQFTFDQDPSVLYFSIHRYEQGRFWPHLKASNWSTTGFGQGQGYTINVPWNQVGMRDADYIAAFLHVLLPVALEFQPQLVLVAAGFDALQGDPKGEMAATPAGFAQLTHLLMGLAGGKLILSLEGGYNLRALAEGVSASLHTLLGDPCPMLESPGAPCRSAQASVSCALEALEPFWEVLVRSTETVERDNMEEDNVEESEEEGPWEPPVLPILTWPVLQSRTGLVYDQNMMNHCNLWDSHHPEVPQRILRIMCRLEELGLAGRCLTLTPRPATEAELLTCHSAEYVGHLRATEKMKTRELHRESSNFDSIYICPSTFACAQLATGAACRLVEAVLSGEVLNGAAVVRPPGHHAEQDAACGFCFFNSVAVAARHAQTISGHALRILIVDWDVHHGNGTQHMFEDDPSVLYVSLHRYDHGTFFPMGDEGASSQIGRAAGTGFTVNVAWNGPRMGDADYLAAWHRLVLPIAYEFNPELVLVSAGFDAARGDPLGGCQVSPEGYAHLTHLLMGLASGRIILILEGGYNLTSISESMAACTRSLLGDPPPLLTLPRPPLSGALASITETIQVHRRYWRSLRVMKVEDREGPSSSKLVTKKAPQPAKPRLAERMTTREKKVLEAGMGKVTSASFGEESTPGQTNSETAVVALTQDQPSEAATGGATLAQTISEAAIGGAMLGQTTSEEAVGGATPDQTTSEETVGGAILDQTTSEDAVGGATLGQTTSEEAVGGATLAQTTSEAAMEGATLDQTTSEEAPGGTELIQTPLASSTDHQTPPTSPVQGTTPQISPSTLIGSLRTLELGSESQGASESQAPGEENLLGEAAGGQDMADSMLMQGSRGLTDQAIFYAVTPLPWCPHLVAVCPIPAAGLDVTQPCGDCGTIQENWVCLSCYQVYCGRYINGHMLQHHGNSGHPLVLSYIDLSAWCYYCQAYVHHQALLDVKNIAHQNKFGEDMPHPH
Description: HDAC6 activity assay (fluorometric, Sigma CS1010, Boc-Lys(Ac)-AMC). Type of experiment: biochemical. The conditions noted are these: read-out: HDAC-6 (IC50 in nM). The method, then:
(§1) HDAC 6 and 8 activities were measured according to the manufacturer’s protocol from Sigma (Cat# CS1010). […] Trichostatin A was used as a reference inhibitor. The Perkin Elmer multimode reader, model-Enspire 2300 was used for fluorescence plate reader.
For the compound `COc1cccc(-c2nc(CNc3ccccc3SCC(N)=O)cs2)c1` [SD-01, 2-((2-(((2-(3-methoxyphenyl)thiazol-4-yl)methyl)amino)phenyl)thio)acetamide], the IC50 is greater than 100 nM.

Consider `CONC(=O)NCc1ccc2cc(OC)ccc2c1` [SD-05, 1-methoxy-3-((6-methoxynaphthalen-2-yl)methyl)urea], for which the IC50 is 30.9 nM.

On to `COC(=O)c1ccc(Oc2coc3cc(OCC(N)=O)ccc3c2=O)cc1` [SD-03, methyl 4-((7-(2-amino-2-oxoethoxy)-4-oxo-4H-chromen-3-yl)oxy)benzoate], for which the IC50 was greater than 100 nM.

In the case of `NC(=O)Cc1nc(-c2cc3cc(Cl)ccc3o2)cs1` [SD-04, 2-(4-(5-chlorobenzofuran-2-yl)thiazol-2-yl)acetamide], the IC50 was greater than 100 nM.

The target of another experiment is T1, HDAC8. Description: HDAC8 activity assay (fluorometric, Sigma CS1010, Boc-Lys(Ac)-AMC). In kind it is biochemical. Conditions: read-out: HDAC-8 (IC50 in nM). The method, then:
as §1
Turning to `COc1cccc(-c2nc(CNc3ccccc3SCC(N)=O)cs2)c1` [SD-01, 2-((2-(((2-(3-methoxyphenyl)thiazol-4-yl)methyl)amino)phenyl)thio)acetamide], the IC50 is 9 nM.

Regarding `CONC(=O)NCc1ccc2cc(OC)ccc2c1` [SD-05, 1-methoxy-3-((6-methoxynaphthalen-2-yl)methyl)urea], the IC50 amounted to 41.6 nM.

In the case of `COC(=O)c1ccc(Oc2coc3cc(OCC(N)=O)ccc3c2=O)cc1` [SD-03, methyl 4-((7-(2-amino-2-oxoethoxy)-4-oxo-4H-chromen-3-yl)oxy)benzoate], the IC50 was greater than 100 nM.

As for `NC(=O)Cc1nc(-c2cc3cc(Cl)ccc3o2)cs1` [SD-04, 2-(4-(5-chlorobenzofuran-2-yl)thiazol-2-yl)acetamide], the IC50 is greater than 100 nM.
